Test results reported in ChEMBL document CHEMBL1201862, “PubChem BioAssay data set” (2004).
Activity calls are given as the source filed them.

Assays:
[1] = Luminescence-based dose response cell-based high throughput screening assay for cytotoxic compounds using the IEC-6 intestinal epithelial cell line. [Related pubchem assays: 1858 (Summary AID.), 1825 (Counterscreen.), 1907 (Confirmation screen.)]; assay type: functional
[2] = inhibitors of intracellular T. cruzi replication, confirmation, NIH3T3 host cells, beta-gal luminescence (AID 2044); assay type: functional, cell-based;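 further: intracellular parasites grown in NIH/3T3 mouse fibroblasts as host cells; luminescent beta-galactosidase reporter signal from transgenic T. cruzi replicating inside host cells; inhibitors lower the luminescence signal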
[3] = cytotoxicity toward NIH3T3 fibroblasts, dose response, counter-screen, cell-based, ATP luminescence, mouse fibroblasts (AID 2010); assay type: functional;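 further: cells exposed to compound for about 90 hours before reading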
[4] = target: T1, Short transient receptor potential channel 4 (Mus musculus, UniProt Q9QUQ5); assay: mouse TRPC4 channel activators, dose response, cell-based, HEK293 TRPC4/mu-opioid, Fluo-4 calcium (AID 434937); assay type: functional
T1 sequence (Q9QUQ5 whole entry): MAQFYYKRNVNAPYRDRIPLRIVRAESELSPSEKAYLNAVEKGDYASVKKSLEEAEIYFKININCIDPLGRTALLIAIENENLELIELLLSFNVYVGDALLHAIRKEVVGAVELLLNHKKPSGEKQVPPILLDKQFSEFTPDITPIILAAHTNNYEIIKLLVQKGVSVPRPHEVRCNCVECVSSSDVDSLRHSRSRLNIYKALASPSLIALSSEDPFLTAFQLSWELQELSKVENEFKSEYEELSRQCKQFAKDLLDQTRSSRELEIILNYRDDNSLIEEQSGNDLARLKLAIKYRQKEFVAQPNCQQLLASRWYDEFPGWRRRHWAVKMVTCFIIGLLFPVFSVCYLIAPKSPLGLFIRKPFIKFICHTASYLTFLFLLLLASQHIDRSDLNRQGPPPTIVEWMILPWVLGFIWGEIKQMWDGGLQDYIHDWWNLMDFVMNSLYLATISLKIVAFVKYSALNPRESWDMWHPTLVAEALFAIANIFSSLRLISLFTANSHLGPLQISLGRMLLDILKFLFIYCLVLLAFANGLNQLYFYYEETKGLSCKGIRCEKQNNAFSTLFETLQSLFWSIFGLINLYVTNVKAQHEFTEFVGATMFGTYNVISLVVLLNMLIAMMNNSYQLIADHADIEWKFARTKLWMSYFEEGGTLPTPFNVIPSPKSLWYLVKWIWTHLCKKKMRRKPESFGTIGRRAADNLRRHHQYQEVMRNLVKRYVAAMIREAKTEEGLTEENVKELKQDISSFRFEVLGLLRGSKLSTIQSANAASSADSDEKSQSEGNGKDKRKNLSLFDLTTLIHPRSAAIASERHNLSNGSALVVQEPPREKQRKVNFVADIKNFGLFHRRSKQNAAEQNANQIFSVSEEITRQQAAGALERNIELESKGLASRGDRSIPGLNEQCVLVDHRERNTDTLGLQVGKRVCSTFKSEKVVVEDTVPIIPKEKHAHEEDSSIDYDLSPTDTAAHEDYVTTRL

Bcl-2-related protein A1 = target: T2, Bcl-2-related protein A1 (Mus musculus, UniProt Q07440); assay: Bfl-1 inhibitors, primary screen, biochemical, fluorescence polarization, FITC-Bid, mouse (AID 432)
T2 sequence (Q07440 whole entry): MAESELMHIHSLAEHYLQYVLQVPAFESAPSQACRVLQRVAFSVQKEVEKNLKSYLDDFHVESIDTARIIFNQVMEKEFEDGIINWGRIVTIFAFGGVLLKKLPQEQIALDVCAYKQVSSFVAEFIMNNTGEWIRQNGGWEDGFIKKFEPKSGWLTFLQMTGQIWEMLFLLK

[5] = target: T3, Dual specificity protein phosphatase 6 (Rattus norvegicus, UniProt Q64346); assay: MKP-3 phosphatase inhibitors, primary screen, biochemical, rat enzyme, in vitro (AID 425)
T3 sequence (Q64346 whole entry): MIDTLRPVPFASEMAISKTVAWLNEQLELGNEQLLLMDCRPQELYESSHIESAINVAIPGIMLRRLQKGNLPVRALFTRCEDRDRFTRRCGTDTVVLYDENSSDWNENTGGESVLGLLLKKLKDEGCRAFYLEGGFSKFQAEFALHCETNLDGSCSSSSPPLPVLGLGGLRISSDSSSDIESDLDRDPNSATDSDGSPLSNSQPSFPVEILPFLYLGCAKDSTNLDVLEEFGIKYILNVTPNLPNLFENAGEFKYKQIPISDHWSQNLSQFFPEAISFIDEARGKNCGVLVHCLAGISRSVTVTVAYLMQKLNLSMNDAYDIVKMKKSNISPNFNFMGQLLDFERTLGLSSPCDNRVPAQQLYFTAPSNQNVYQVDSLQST

[6] = target: T4, Small ubiquitin-related modifier 1 (Homo sapiens, UniProt P63165); assay: inhibitors of SUMO1 peptide binding, dose response, biochemical, fluorescence polarization, uHTS hits (AID 624382); assay type: functional; conditions: read-out: IC50_Mean
[7] = target: T4, Small ubiquitin-related modifier 1; assay: inhibitors of SUMO1 partner interactions, dose response, biochemical, FRET (AID 624383); assay type: functional; conditions: read-out: IC50_Mean
[8] = target: Neuropeptide Y receptor type 1 (Homo sapiens, UniProt P25929); assay: NPY-Y1 receptor antagonist potency, dose response, cell-based (AID 1277); assay type: functional
[9] = target: T5, Sphingosine 1-phosphate receptor 4 (Homo sapiens, UniProt O95977); assay: Fluorescence dose response cell-based high throughput screening assay for antagonists of the Sphingosine 1-Phosphate Receptor 4 (S1P4). [Related pubchem assays: 1524 (Confirmation in triplicates.), 1510 (Primary screen.)]; assay type: functional
T5 sequence (O95977 whole entry): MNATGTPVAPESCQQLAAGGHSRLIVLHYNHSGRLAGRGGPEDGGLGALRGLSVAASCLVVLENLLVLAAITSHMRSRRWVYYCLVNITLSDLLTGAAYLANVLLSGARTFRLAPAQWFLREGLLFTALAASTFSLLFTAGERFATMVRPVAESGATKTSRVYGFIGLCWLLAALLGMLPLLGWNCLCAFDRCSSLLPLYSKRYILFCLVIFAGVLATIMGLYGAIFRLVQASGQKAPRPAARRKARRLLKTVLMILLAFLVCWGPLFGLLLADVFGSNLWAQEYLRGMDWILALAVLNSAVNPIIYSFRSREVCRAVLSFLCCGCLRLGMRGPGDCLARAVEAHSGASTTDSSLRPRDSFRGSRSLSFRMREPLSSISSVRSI

[10] = target: Sphingosine 1-phosphate receptor 1 (Homo sapiens, UniProt P21453); assay type: functional;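 further: Tango beta-arrestin reporter U2OS cells stimulated with S1P near its EC80; inhibitor potency meaning antagonism of receptor activation by the natural agonist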
[11] = target: T6, Microphthalmia-associated transcription factor (Homo sapiens, UniProt O75030); assay: TRPM1 promoter luciferase signal decrease, dose response, MITF inhibitor project, cell-based, SK-MEL-5, cherry-picked, set 3 (AID 493073); assay type: functional
T6 sequence (O75030 whole entry): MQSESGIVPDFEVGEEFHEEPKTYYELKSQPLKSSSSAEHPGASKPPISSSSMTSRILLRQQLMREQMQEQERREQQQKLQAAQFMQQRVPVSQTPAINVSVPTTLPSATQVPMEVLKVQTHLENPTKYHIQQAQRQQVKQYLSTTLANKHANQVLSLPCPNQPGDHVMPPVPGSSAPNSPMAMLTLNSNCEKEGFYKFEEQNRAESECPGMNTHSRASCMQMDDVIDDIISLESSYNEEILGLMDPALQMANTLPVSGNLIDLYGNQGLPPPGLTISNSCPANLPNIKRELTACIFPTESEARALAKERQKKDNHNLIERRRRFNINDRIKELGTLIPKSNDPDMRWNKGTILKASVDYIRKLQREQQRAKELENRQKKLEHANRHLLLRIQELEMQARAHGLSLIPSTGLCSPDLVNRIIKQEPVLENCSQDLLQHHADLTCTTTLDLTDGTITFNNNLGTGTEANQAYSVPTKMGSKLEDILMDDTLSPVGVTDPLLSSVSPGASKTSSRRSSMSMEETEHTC

[12] = Fluorescence-based cell-based high throughput dose response assay for inhibitors of the interaction of nucleotide-binding oligomerization domain containing 2 (NOD2) and the receptor-interacting serine-threonine kinase 2 (RIPK2).; assay type: functional; conditions: Homo sapiens
[13] = inhibitors of PGC1a acetylation in cells, dose response, cell-based, cherry-picked samples (AID 720514); assay type: functional;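 further: potency may reflect raised or lowered acetylation signal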
[14] = HEp-2 cell cytotoxicity, dose response, cytotoxicity control for RSV inhibitor project, HTS (AID 2410); assay type: functional; conditions: human respiratory syncytial virus
[15] = Luminescence Cell-Based Dose Response to Identify Activators of 5'UTR Stem-Loop Driven Prion Protein mRNA Translation in H4-C Neuroglioblastoma Cells. [Related pubchem assays: 1829 (Project Summary), 1814 (Primary HTS)]; assay type: functional
[16] = Luminescence Cell-Based Dose Response HTS to Identify Activators of Luciferase Translation or Activity in H4 […] Cells. [Related pubchem assays: 1829 (Project Summary), 1814 (Primary HTS)]; assay type: functional
[17] = Luminescence Cell-Based Dose Response to Identify Activators of Luciferase Translation or Activity in H4-C Neuroglioblastoma Cells. [Related pubchem assays: 1829 (Project Summary), 1814 (Primary HTS)]; assay type: functional
[18] = Luminescence Cell-Based Dose Confirmation to Identify Activators of 5'UTR Stem-Loop Driven Alpha-Synuclein mRNA Translation in H4 Neuroglioblastoma Cells. [Related pubchem assays: 1829 (Project Summary), 1814 (Primary HTS)]; assay type: functional
[19] = Luminescence Cell-Based Dose Confirmation HTS to Identify Activators of 5'UTR Stem-Loop Driven Alpha-Synuclein mRNA Translation in H4 Neuroglioblastoma Cells. [Related pubchem assays: 1829 (Project Summary), 1814 (Primary HTS)]; assay type: functional
H4 = assay: Luminescence Cell-Based Dose Response HTS to Identify Activators of 5'UTR Stem-Loop Driven Prion Protein mRNA Translation in H4 Neuroglioblastoma Cells. [Related pubchem assays: 1829 (Project Summary), 1814 (Primary HTS)]; assay type: functional; conditions: Homo sapiens
Large T antigen = Large T antigen (Simian virus 40, UniProt P03070); assay type: functional, Betapolyomavirus macacae;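 further: Confirmatory-stage PubChem screen for compounds that inhibit SV40 T antigen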
[20] = target: Induced myeloid leukemia cell differentiation protein Mcl-1 (Homo sapiens, UniProt Q07820); assay type: functional
Induced myeloid leukemia cell differentiation protein Mcl-1, sequence (Q07820 whole entry): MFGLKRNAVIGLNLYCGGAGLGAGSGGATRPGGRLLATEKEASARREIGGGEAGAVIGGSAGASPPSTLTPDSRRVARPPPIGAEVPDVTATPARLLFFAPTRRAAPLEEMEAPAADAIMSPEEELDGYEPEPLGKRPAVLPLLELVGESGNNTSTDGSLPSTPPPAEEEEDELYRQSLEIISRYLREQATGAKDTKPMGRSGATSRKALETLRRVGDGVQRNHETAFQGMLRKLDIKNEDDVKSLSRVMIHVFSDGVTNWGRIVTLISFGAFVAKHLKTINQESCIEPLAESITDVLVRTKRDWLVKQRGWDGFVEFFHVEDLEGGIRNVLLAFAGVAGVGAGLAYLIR

T4 sequence (P63165 whole entry): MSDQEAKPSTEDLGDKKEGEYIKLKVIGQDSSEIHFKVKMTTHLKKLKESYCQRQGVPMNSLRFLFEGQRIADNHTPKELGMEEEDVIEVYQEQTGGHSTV
Neuropeptide Y receptor type 1, sequence (P25929 whole entry): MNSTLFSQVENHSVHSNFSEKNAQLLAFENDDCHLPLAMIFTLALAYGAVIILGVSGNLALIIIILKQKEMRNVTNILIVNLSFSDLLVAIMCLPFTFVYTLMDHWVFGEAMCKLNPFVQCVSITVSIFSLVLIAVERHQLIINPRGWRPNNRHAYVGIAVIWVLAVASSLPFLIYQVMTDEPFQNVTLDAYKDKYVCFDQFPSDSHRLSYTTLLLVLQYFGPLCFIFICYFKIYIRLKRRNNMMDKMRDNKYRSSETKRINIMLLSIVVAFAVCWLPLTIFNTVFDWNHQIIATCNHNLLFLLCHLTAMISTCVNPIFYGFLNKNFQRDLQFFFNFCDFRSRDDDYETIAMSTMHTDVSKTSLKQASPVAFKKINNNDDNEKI
Sphingosine 1-phosphate receptor 1, sequence (P21453 whole entry): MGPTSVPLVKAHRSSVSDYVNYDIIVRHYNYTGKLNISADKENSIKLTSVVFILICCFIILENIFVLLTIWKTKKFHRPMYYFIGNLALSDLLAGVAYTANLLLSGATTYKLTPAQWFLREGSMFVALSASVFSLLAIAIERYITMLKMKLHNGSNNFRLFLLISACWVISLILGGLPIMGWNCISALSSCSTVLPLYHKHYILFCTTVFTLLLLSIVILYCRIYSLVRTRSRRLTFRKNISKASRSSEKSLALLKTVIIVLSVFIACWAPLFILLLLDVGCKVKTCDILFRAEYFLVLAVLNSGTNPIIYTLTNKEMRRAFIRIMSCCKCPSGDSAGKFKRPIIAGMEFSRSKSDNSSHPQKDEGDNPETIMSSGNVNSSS
Large T antigen, sequence (P03070 whole entry): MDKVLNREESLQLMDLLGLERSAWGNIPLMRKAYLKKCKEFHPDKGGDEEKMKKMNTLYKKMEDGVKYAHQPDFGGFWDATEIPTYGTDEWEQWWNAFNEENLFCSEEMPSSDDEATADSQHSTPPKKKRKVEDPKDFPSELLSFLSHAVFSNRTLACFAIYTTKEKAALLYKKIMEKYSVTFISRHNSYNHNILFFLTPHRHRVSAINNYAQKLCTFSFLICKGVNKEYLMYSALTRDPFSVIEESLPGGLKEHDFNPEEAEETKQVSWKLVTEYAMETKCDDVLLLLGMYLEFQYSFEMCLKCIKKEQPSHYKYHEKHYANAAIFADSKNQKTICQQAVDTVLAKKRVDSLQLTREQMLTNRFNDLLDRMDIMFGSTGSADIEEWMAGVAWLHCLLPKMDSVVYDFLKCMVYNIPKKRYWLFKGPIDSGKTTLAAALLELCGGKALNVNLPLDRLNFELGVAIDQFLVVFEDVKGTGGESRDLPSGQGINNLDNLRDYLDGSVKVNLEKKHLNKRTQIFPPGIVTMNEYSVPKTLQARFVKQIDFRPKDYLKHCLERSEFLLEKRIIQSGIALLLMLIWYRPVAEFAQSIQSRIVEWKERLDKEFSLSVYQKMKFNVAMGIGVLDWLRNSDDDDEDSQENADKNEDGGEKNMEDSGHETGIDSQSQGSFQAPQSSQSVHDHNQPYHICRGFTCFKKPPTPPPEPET

SMILES: N=C(N)Nc1ccc(NC(=N)N)cc1
- IC50 [1]: 1800 nM (active)

SMILES: Cc1ccc2oc(=O)c3cnn(CC(=O)NC4CCN(Cc5ccccc5)CC4)c3c2c1
- EC50 [2]: < 100 nM (active)
- EC50 [3]: > 60000 nM (not active)
- EC50 [4]: 2110 nM (active)
- EC50 (cells): 79 nM (active)

SMILES: Nc1ccc2ncccc2c1N
- IC50 (Bcl-2-related protein A1): 3490 nM (active)
- IC50 [5]: > 10000 nM (not active)
- IC50 [6]: > 66600 nM (inactive)
- IC50 [7]: 3210 nM (active)

SMILES: CCc1cc(-c2n[nH]cc2-c2ccc3c(c2)OCO3)c(O)cc1O
- IC50 [8]: 13300 nM (not active)

SMILES: O=C(Cn1ncc(Cl)c(Cl)c1=O)c1ccc(Cl)cc1
- EC50 [2]: 2110 nM (active)
- EC50 [3]: 2410 nM (active)
- IC50 [9]: 2150 nM (active)
- IC50 [10]: 7280 nM (active)
- AC50 [11]: 8810 nM (active)
- IC50 [12]: 1840 nM (active)
- AC50 [13]: 3390 nM (active)

SMILES: O=C(Nc1nc(-c2ccc3c(c2)OCCO3)cs1)C1CCCC1
- CC50 [14]: 21000 nM (active)
- EC50 [15]: 365 nM (active)
- EC50 [16]: < 100 nM (inconclusive)
- EC50 [17]: 270 nM (active)
- EC50 [18]: 247 nM (active)

SMILES: Cc1ncc(CN2CCCC(CCC(=O)NCc3ccccc3F)C2)s1 (stereo not drawn)
- EC50 [2]: < 100 nM (active)
- EC50 [3]: > 60000 nM (not active)
- EC50 (cells): 99 nM (active)

SMILES: Oc1ccc(-c2csc(Nc3ncccn3)n2)cc1O
- EC50 [15]: 815 nM (active)
- EC50 [19]: 100 nM (active)
- EC50 [16]: 3450 nM (active)
- EC50 (H4): 125 nM (active)
- EC50 [17]: > 12000 nM (not active)
- IC50 (Large T antigen): 14000 nM (active)
- EC50 [18]: 670 nM (active)
- IC50 [20]: 3520 nM (active)
